Key:
[1] = tested on: bedstraw; test: Test B pre/postemergence bedstraw; type: in vivo, Galium aparine
Summary of the method: (§1)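 Test chemicals in a non-phytotoxic solvent mixture with surfactant were sprayed preemergence onto planted seeds and postemergence onto plants 2 to 18 cm tall (1- to 4-leaf stage). After twelve to sixteen days in a greenhouse, injury was visually rated against untreated controls from 0 (no effect) to 10 (complete control).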

[2] = tested on: pigweed; test: Test B pre/postemergence pigweed; type: in vivo, Amaranthus retroflexus
Summary of the method: as §1

[3] = tested on: rice; test: Test B flood test rice; type: in vivo, Oryza sativa; details: for Plant response rating, Rice (0 to 10 scale, 0 is no effect, 10 is complete control) / Rice plant response rating (0 to 10 scale, 0 is no effect, 10 is complete control): flood test species, visual evaluation after twelve to sixteen days; for Plant response rating, Rice (0 to 10 scale, 0 is no effect, 10 is complete control): Pre-emergence; for Rice plant response rating (0 to 10 scale, 0 is no effect, 10 is complete control): under heading Pre-emergence
Summary of the method: (§2)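 Each value is a visual injury score relative to controls, with 10 meaning complete control and 0 no effect. Evaluation took place twelve to sixteen days after the 2-leaf-stage plants were treated and kept in the greenhouse.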

[4] = tested on: bamyardgrass; test: Test B flood test barnyardgrass; type: in vivo, Echinochloa crus-galli; details: for Plant response rating, Barnyardgrass (0 to 10 scale, 0 is no effect, 10 is complete control) / Barnyardgrass plant response rating (0 to 10 scale, 0 is no effect, 10 is complete control): flood test species, visual evaluation after twelve to sixteen days; for Plant response rating, Barnyardgrass (0 to 10 scale, 0 is no effect, 10 is complete control): Pre-emergence; for Barnyardgrass plant response rating (0 to 10 scale, 0 is no effect, 10 is complete control): under heading Pre-emergence
Summary of the method: as §2

[5] = Postemergence, Rate 125 g/ha, scale 0 to 10, 0 is no effect, 10 is complete control
[6] = Postemergence, Rate 500 g/ha, scale 0 to 10, 0 is no effect, 10 is complete control
[7] = Rate 62 g/ha, Postemergence, scale 0 to 10, 0 no effect, 10 complete control
[8] = Preemergence, Rate 62 g/ha, scale of 0 to 10 where 0 is no effect and 10 is complete control
[9] = Rate 250 g/ha, Pre-emergence (flood test species), scale 0 to 10, 0 is no effect, 10 is complete control
[10] = Rate 500 g/ha, Pre-emergence section of Table B, 0 to 10 scale (0 no effect, 10 complete control)
[11] = Preemergence, Rate 125 g/ha, scale of 0 to 10 where 0 is no effect and 10 is complete control
[12] = Preemergence, Rate 250 g/ha, scale 0 to 10 (0 no effect, 10 complete control)
[13] = Preemergence, Rate 500 g/ha, scale of 0 to 10 where 0 is no effect and 10 is complete control
[14] = Postemergence, Rate 62 g/ha, scale 0 to 10, 0 is no effect, 10 is complete control
[15] = Postemergence, Rate 125 g/ha, scale of 0 to 10 where 0 is no effect and 10 is complete control
[16] = Postemergence, Rate 250 g/ha, scale of 0 to 10, 0 is no effect, 10 is complete control
[17] = Postemergence, Rate 250 g/ha, scale 0 to 10, 0 no effect, 10 complete control
[18] = Preemergence, Rate 62 g/ha, scale 0 to 10, 0 is no effect, 10 is complete control
[19] = Preemergence, Rate 125 g/ha, scale 0 to 10 (0 no effect, 10 complete control)
[20] = Preemergence, Rate 250 g/ha, scale of 0 to 10 where 0 is no effect and 10 is complete control
[21] = Preemergence, Rate 500 g/ha, scale 0 (no effect) to 10 (complete control)
[22] = Rate 125 g/ha, Postemergence, scale 0 to 10, 0 no effect, 10 complete control
[23] = Rate 500 g/ha, Postemergence, 0 to 10 scale (0 no effect, 10 complete control)
[24] = Rate 125 g/ha, Postemergence section (flood test species), scale 0 to 10, 0 no effect, 10 complete control
[25] = Rate 500 g/ha, Postemergence section of Table B, 0 to 10 scale (0 no effect, 10 complete control)
[26] = flood test, listed under Postemergence, Rate 250 g/ha, scale 0 to 10, 0 no effect, 10 complete control

SMILES: CC(C)C(=O)Cn1c(=O)on(C(=O)N(c2ccc(F)cc2F)C(C)C)c1=O [Compound 486]
- Bedstraw plant response rating [1, 5]: 1
- Bedstraw plant response rating ([1]; Postemergence, Rate 250 g/ha, scale 0 to 10): 4
- Plant response rating, Bedstraw [1, 6]: 8
- Bedstraw plant response rating [1, 7]: 0
- Redroot pigweed plant response rating [2, 5]: 0
- Plant response rating, Redroot pigweed [2, 6]: 2
- Plant response rating, Redroot pigweed [2, 8]: 6
- Redroot pigweed plant response rating ([2]; Preemergence, Rate 125 g/ha, scale 0 to 10, 0 is no effect, 10 is complete control): 8
- Redroot pigweed plant response rating ([2]; Preemergence, Rate 250 g/ha, scale 0 to 10, 0 is no effect, 10 is complete control): 9
- Redroot pigweed plant response rating ([2]; Preemergence, Rate 500 g/ha, scale 0 to 10, 0 is no effect, 10 is complete control): 9
- Redroot pigweed plant response rating [2, 7]: 0
- Plant response rating, Rice (0 to 10 scale, 0 is no effect, 10 is complete control) ([3]; Rate 62 g/ha): 0
- Rice plant response rating (0 to 10 scale, 0 is no effect, 10 is complete control) ([3]; Rate 125 g/ha): 0
- Rice plant response rating [3, 9]: 0
- Rice plant response rating [3, 10]: 0
- Plant response rating, Barnyardgrass (0 to 10 scale, 0 is no effect, 10 is complete control) ([4]; Rate 62 g/ha): 0
- Barnyardgrass plant response rating (0 to 10 scale, 0 is no effect, 10 is complete control) ([4]; Rate 125 g/ha): 0
- Barnyardgrass plant response rating [4, 9]: 0
- Barnyardgrass plant response rating [4, 10]: 0

SMILES: C=C(Cn1c(=O)on(C(=O)N(c2ccccc2)C(C)C)c1=O)C(C)C [Compound 649]
- Bedstraw plant response rating [1, 8]: 0
- Bedstraw plant response rating [1, 11]: 0
- Plant response rating, Bedstraw [1, 12]: 0
- Plant response rating, Bedstraw [1, 13]: 0
- Plant response rating, Redroot pigweed [2, 14]: 0
- Redroot pigweed plant response rating [2, 15]: 0
- Redroot pigweed plant response rating [2, 8]: 0
- Redroot pigweed plant response rating [2, 11]: 0
- Plant response rating, Redroot pigweed [2, 12]: 0
- Plant response rating, Redroot pigweed [2, 13]: 0
- Redroot pigweed plant response rating ([2]; Rate 500 g/ha, Postemergence, scale 0 to 10, 0 is no effect, 10 is complete control): 0
- Plant response rating, Rice (0 to 10 scale, 0 is no effect, 10 is complete control) ([3]; Rate 62 g/ha): 0
- Rice plant response rating (0 to 10 scale, 0 is no effect, 10 is complete control) ([3]; Rate 125 g/ha): 0
- Rice plant response rating [3, 9]: 0
- Rice plant response rating [3, 10]: 0
- Plant response rating, Barnyardgrass (0 to 10 scale, 0 is no effect, 10 is complete control) ([4]; Rate 62 g/ha): 0
- Barnyardgrass plant response rating (0 to 10 scale, 0 is no effect, 10 is complete control) ([4]; Rate 125 g/ha): 0
- Barnyardgrass plant response rating [4, 9]: 0
- Barnyardgrass plant response rating [4, 10]: 2

SMILES: CCOC(Cn1c(=O)on(C(=O)N(c2ccc(Cl)cc2)C(C)C)c1=O)OCC [Compound 633]
- Plant response rating, Bedstraw [1, 14]: 0
- Plant response rating, Bedstraw [1, 15]: 0
- Bedstraw plant response rating [1, 16]: 0
- Plant response rating, Redroot pigweed [2, 14]: 0
- Plant response rating, Redroot pigweed [2, 15]: 0
- Redroot pigweed plant response rating [2, 16]: 1
- Redroot pigweed plant response rating ([2]; Preemergence, Rate 62 g/ha, scale 0 to 10 (0 no effect, 10 complete control)): 0
- Redroot pigweed plant response rating [2, 11]: 0
- Plant response rating, Redroot pigweed [2, 12]: 2
- Plant response rating, Redroot pigweed [2, 13]: 4
- Plant response rating, Rice (0 to 10 scale, 0 is no effect, 10 is complete control) ([3]; Rate 62 g/ha): 0
- Rice plant response rating (0 to 10 scale, 0 is no effect, 10 is complete control) ([3]; Rate 125 g/ha): 0
- Rice plant response rating [3, 9]: 0
- Rice plant response rating [3, 10]: 0
- Plant response rating, Barnyardgrass (0 to 10 scale, 0 is no effect, 10 is complete control) ([4]; Rate 62 g/ha): 0
- Barnyardgrass plant response rating (0 to 10 scale, 0 is no effect, 10 is complete control) ([4]; Rate 125 g/ha): 0
- Barnyardgrass plant response rating [4, 9]: 0
- Barnyardgrass plant response rating [4, 10]: 0

SMILES: CC(C)N(C(=O)n1oc(=O)n(-c2cc(Cl)ccc2Cl)c1=O)c1ccc(F)cc1 [Compound 16]
- Bedstraw plant response rating [1, 14]: 0
- Bedstraw plant response rating [1, 17]: 0
- Plant response rating, Bedstraw [1, 18]: 0
- Plant response rating, Bedstraw [1, 19]: 0
- Plant response rating, Bedstraw [1, 20]: 0
- Bedstraw plant response rating [1, 21]: 0
- Bedstraw plant response rating [1, 22]: 0
- Bedstraw plant response rating [1, 23]: 0
- Redroot pigweed plant response rating [2, 14]: 0
- Redroot pigweed plant response rating [2, 17]: 0
- Plant response rating, Redroot pigweed [2, 18]: 0
- Plant response rating, Redroot pigweed [2, 19]: 0
- Plant response rating, Redroot pigweed [2, 20]: 0
- Redroot pigweed plant response rating [2, 21]: 0
- Redroot pigweed plant response rating [2, 22]: 0
- Redroot pigweed plant response rating [2, 23]: 0
- Rice plant response rating [3, 14]: 0
- Rice plant response rating [3, 24]: 0
- Rice plant response rating [3, 25]: 0
- Rice plant response rating [3, 26]: 0
- Barnyardgrass plant response rating [4, 14]: 0
- Barnyardgrass plant response rating [4, 24]: 0
- Barnyardgrass plant response rating [4, 25]: 0
- Barnyardgrass plant response rating [4, 26]: 0
